# Test results: US20240173329A1, “BELVARAFENIB FOR USE IN TREATMENT OF BRAIN CANCERS” (Genentech, Inc., priority 2021, published 2024)
# How the values were obtained:
# [1] = target: RAF-1 (CRAF) (Homo sapiens, UniProt P04049); test: RAF kinase inhibition in vitro; assay type: biochemical
# [2] = system: A375SM-Luc cells harboring the BRAF^V600 mutation; test: A375SM_Luc cell brain metastasis mouse model; assay type: in vivo; details: for mOS (median overall survival): vehicle 24.5 days; for day from which clinical signs of debility due to tumor growth occurred: vehicle after day 11
# Method: The mouse strain was BALB/c Nude (nu/nu) produced and supplied by Orient Bio Inc., Korea.
# The mice were kept in conventional animal lab cages for at least one week for acclimation before the start of the experiment. The cages were polysulfone 1291H (W425×D266×H185 mm, Techniplast, Italy). Eight mice were housed in each cage at a temperature of 22±2° C., a relative humidity of 50±20%, a ventilation frequency of 10-15 times/h, a 12 hour light/dark cycle, a light intensity of 150-300 Lux, at least weekly cage replacement. The mice were fed ad libitum Picolab Rodent diet (5053, Lab Diet, USA). Tap water was given ad libitum following UV irradiation and filtration.
# The cancer cell line was A375SM-Luc harboring the BRAF^V600 mutation. That cell line was deemed suitable for the efficacy study of RAF inhibitors against BRAF^V600 in melanoma.
# The A375SM-Luc cell line was established as follows. A375SM cells were seeded into 24 well clear flat-bottomed plates with 2.5×10^5 cells/well in MEM medium (Gibco, USA) supplemented with 10% FBS (Gibco, USA). The next day, CMV-Firefly luciferase lentivirus (Cellomics Inc., USA) was diluted in complete medium containing 8 μg/mL polybrene (Sigma Aldrich, St. Louis MO, USA). Cells were centrifuged in the prepared medium for 90 minutes at 800×g, followed by incubation in fresh medium for 2 to 3 days. Stable clones were selected using puromycin, and individual clones were screened for luciferase activity be measuring their light emission with the IVIS® Lumina Series III In Vivo Imaging System (PerkinElmer Inc., USA) after adding 10 μL (15 mg/mL) D-Luciferin (Gold Biotechnology, USA). The in vitro media was MEM 10% FBS. The in vitro culture condition was incubation at 5% CO2 at 37° C.
# The in vivo cell inoculation was as follows. Mice were anesthetized by intraperitoneal (i.p.) injection of 30 mg/kg Zoletil 50 (Virbac, France) and 10 mg/kg Rompun (Bayer Korea, Korea). Five thousand cells suspended in 10 μL phosphate buffered saline were intracranially injected into the right frontal hemisphere (AP+2.0, ML−1.0, DV+2.0 from the bregma) using a stereotactic fixation device (David Kopf Instruments, USA). Mouse models were produced over two days.
# The mice were randomized by their tumor burden by BLI (8 mice per group) after 6-7 days from inoculation (implantation). The mice were then dosed with belvarafenib dihydrochloride, 99.6% purity, that was stored at room temperature. Dosing was based on active ingredient free base and was corrected for assay and water content. The dosing vehicle was DMSO (5%), cremophore EL (5%), and deionized water (90%). Belvarafenib for dosing was dissolved in the vehicle.
# Belvarafenib (in groups 2 and 3) and vehicle (in group 1) were dosed at 10 mL/kg (p.o.) once per day (QD) for a duration of 102 days.
# Body weight measurement was performed twice a week during the dosing period. Relative body weight (%) was calculated by: body weight Day X (g)/initial body weight (g)×100 (Day X=body weight measurement day). Tumor burden was measured by bioluminescence imaging (BLI) using a IVIS® Lumina Series III In Vivo Imaging System (PerkinElmer Inc., USA) each week. […] Kaplan-Meier survival curves showing prolonged survival of mice of groups 1 to 3 were plotted from the date of drug administration. The median overall survival rate (mOS) was the amount of time after which 50% of the mice had died and 50% had survived.
# The data were expressed as means±standard error of the mean (SEM). Statistical analysis was conducted by GraphPad PRISM® Version 6 (GraphPad Software, USA). […] was conducted to evaluate significant differences between the groups. A p value less than 0.05 was considered statistically significant.
# Mice were intraperitoneally injected with 15 mg/mL of D-Luciferin on each of days 1, 5, 12, 19, 26, 33, 40, 47, 54, 61, 68, 75, 82, 89, 96, and 103 and evaluated with BLI imaging with an IVIS® Lumina Series III In Vivo Image System (PerkinElmer Inc., USA).
# [3] = system: P-gp/BCRP; test: P-gp/BCRP efflux substrate status; assay type: in vitro ADME; details: belvarafenib, own experiments
# RAF-1 (CRAF), sequence (P04049 whole entry): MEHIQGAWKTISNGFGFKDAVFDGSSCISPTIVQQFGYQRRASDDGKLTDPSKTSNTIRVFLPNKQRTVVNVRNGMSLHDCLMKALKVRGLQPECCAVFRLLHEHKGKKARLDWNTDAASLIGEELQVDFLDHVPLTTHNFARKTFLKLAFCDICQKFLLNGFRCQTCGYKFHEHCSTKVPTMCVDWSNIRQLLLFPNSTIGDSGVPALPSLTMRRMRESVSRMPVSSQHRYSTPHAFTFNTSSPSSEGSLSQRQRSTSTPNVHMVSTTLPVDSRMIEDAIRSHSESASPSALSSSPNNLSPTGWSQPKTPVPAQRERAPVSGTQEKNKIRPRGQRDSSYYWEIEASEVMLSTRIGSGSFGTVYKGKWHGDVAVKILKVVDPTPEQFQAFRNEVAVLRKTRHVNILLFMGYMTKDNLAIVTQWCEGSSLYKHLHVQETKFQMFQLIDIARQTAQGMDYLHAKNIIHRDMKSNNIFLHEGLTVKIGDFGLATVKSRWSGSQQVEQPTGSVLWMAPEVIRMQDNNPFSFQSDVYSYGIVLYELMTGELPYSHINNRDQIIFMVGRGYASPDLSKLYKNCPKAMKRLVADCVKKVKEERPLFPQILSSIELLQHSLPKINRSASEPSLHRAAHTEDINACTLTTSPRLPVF
smiles,measurement,setting,value
"Cc1ccc2c(Nc3cccc(Cl)c3F)nccc2c1NC(=O)c1csc2c(N)ncnc12 [Belvarafenib, 4-amino-N-(1-((3-chloro-2-fluorophenyl)amino)-6-methylisoquinolin-5-yl)thieno[3,2-d]pyrimidine-7-carboxamide]",IC50,[1],2 nM
same,tumor burden by bioluminescence imaging (BLI),[2]; 5 mg/kg p.o. QD,more effective tumor inhibition than the vehicle
same,Maximum weight loss,"[2]; 5 mg/kg p.o. QD, day 39",33.0 (day 39) %
same,mOS (median overall survival),[2]; 5 mg/kg p.o. QD,34.5 days
same,tumor burden by bioluminescence imaging (BLI),[2]; 15 mg/kg p.o. QD,markedly delayed tumor growth as compared to the vehicle
same,mOS (median overall survival),[2]; 15 mg/kg p.o. QD,70.0 days
same,day from which clinical signs of debility due to tumor growth occurred,[2]; group 2 (5 mg/kg),14 days
same,day from which clinical signs of debility due to tumor growth occurred,[2]; group 3 (15 mg/kg),16 days
same,day of administration from which hair growth showed,[2]; groups 2 and 3 (5 and 15 mg/kg),7 days
same,P-gp/BCRP efflux substrate?,[3],is not a P-gp and a BCRP efflux substrate and No
